From PubChem BioAssay (NCI)
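These data come from cells grown in 96-well plates and exposed to compound for 48 hours at five concentrations. At the TGI there is no net growth.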

Assays:
Test in all cases: NCI-60 cell line screen, 48 h
[1] = test system: HS 578T breast
[2] = test system: NCI-H522 lung
[3] = test system: T-47D breast
[4] = test system: KM12 colon
[5] = test system: COLO 205 colon
[6] = test system: HOP-92 NSCLC
[7] = test system: BT-549 breast
[8] = test system: PC-3 prostate
[9] = test system: MCF7 breast
[10] = test system: SW-620 colon
[11] = test system: TK-10 renal
[12] = test system: ACHN renal
[13] = test system: SF-295 CNS
[14] = test system: MOLT-4 leukemia
[15] = test system: A549 NSCLC
[16] = test system: CCRF-CEM leukemia
[17] = test system: CAKI-1 renal
[18] = test system: HOP-62 NSCLC
[19] = test system: OVCAR-5 ovarian
[20] = test system: SNB-75 CNS
[21] = test system: SNB-19 CNS
[22] = test system: NCI-H226 lung
[23] = test system: OVCAR-8 ovarian
[24] = test system: M14 melanoma
[25] = test system: NCI-H460 lung
[26] = test system: UACC-257 melanoma
[27] = test system: RPMI-8226 leukemia
[28] = test system: HL-60(TB) leukemia
[29] = test system: IGROV1 ovarian
[30] = test system: RXF 393 renal
[31] = test system: SK-MEL-5 melanoma
[32] = test system: SN12C renal
[33] = test system: HT29 colon
[34] = test system: MDA-MB-435
[35] = test system: HCC-2998 colon
[36] = test system: 786-0 renal
[37] = test system: EKVX NSCLC
[38] = test system: SK-MEL-28 melanoma
[39] = test system: UO-31 renal
[40] = test system: SF-539 CNS
[41] = test system: K-562 leukemia
[42] = test system: MDA-N
[43] = test system: DU-145 prostate
[44] = test system: OVCAR-3 ovarian
[45] = test system: MALME-3M melanoma
[46] = test system: HCT-15 colon
[47] = test system: LOX IMVI melanoma
[48] = test system: SK-MEL-2 melanoma
[49] = test system: SK-OV-3 ovarian
[50] = test system: NCI-H23 lung
[51] = test system: HCT-116 colon
[52] = test system: NCI/ADR-RES ovarian
[53] = test system: UACC-62 melanoma
[54] = test system: SR leukemia
[55] = test system: U251 CNS
[56] = test system: OVCAR-4 ovarian
[57] = test system: A498 renal
[58] = test system: SF-268 CNS
[59] = test system: MDA-MB-231 breast

`COc1c(C(CC(C)C)OC(C)=O)ccc2c1C(=O)OCc1cc(C)cc(O)c1O2` (stereo not given) gave a TGI [1] of 50.4 µM, a TGI [2] of 26.2 µM and a TGI [3] of 23.6 µM. The TGI [4] was 35.4 µM, the TGI [5] was 31.8 µM and the TGI [6] was 24.5 µM. It also gave a TGI [7] of 30 µM, a TGI [8] of 21.6 µM and a TGI [9] of 25.6 µM. For the same compound, the TGI [10] was 31.5 µM, the TGI [11] was 31.8 µM and the TGI [12] was 23.2 µM. The TGI [13] was 27.8 µM, the TGI [14] was > 100 µM and the TGI [15] was 25.8 µM. The TGI [16] was > 100 µM, the TGI [17] was 32.2 µM and the TGI [18] was 32.8 µM. The TGI [19] was 28.4 µM, the TGI [20] was 42.1 µM and the TGI [21] was 28.7 µM. It also gave a TGI [22] of 30 µM, a TGI [23] of 33.1 µM and a TGI [24] of 31.3 µM. For the same compound, the TGI [25] was 26.8 µM, the TGI [26] was 21.6 µM and the TGI [27] was > 100 µM. The TGI [28] was > 100 µM, the TGI [29] was 30.4 µM and the TGI [30] was 34 µM. For the same compound, the TGI [31] was 23.2 µM, the TGI [32] was 27.2 µM and the TGI [33] was 32.2 µM. For the same compound, the TGI [34] was 26.6 µM, the TGI [35] was 25.4 µM and the TGI [36] was 29.2 µM. The TGI [37] was 24.1 µM, the TGI [38] was 29.4 µM and the TGI [39] was 19.7 µM. For the same compound, the TGI [40] was 32.9 µM, the TGI [41] was > 100 µM and the TGI [42] was 29.9 µM. It also gave a TGI [43] of 25.8 µM, a TGI [44] of 22.3 µM and a TGI [45] of 29.8 µM. For the same compound, the TGI [46] was 23.5 µM, the TGI [47] was 27.8 µM and the TGI [48] was 33.4 µM. The TGI [49] was 31 µM, the TGI [50] was 23.3 µM and the TGI [51] was 25.1 µM. The TGI [52] was 32.2 µM, the TGI [53] was 25.5 µM and the TGI [54] was > 100 µM. The TGI [55] was 28.1 µM, the TGI [56] was 27.1 µM and the TGI [57] was 34.7 µM. For the same compound, the TGI [58] was 27.9 µM.
For `O=C(O)c1ccccc1C(=O)OCC1CCCN2CCCCC12` (stereo not given), the TGI [1] was > 100 µM, the TGI [3] was > 100 µM and the TGI [4] was > 100 µM. The TGI [5] was > 100 µM, the TGI [6] was > 100 µM and the TGI [7] was > 100 µM. The TGI [8] was > 100 µM, the TGI [9] was > 100 µM and the TGI [10] was > 100 µM. For the same compound, the TGI [11] was > 100 µM, the TGI [12] was > 100 µM and the TGI [13] was > 100 µM. For the same compound, the TGI [14] was > 100 µM, the TGI [15] was > 100 µM and the TGI [16] was > 100 µM. The TGI [17] was > 100 µM, the TGI [18] was > 100 µM and the TGI [19] was > 100 µM. For the same compound, the TGI [20] was > 100 µM, the TGI [21] was > 100 µM and the TGI [22] was > 100 µM. The TGI [23] was > 100 µM, the TGI [24] was > 100 µM and the TGI [25] was > 100 µM. The TGI [26] was > 100 µM, the TGI [27] was > 100 µM and the TGI [29] was > 100 µM. For the same compound, the TGI [30] was > 100 µM, the TGI [31] was > 100 µM and the TGI [32] was > 100 µM. The TGI [33] was > 100 µM, the TGI [34] was > 100 µM and the TGI [35] was > 100 µM. For the same compound, the TGI [36] was > 100 µM, the TGI [37] was > 100 µM and the TGI [38] was > 100 µM. For the same compound, the TGI [39] was > 100 µM, the TGI [40] was > 100 µM and the TGI [41] was > 100 µM. The TGI [42] was > 100 µM, the TGI [43] was > 100 µM and the TGI [44] was > 100 µM. For the same compound, the TGI [45] was > 100 µM, the TGI [46] was > 100 µM and the TGI [47] was > 100 µM. For the same compound, the TGI [48] was > 100 µM, the TGI [49] was > 100 µM and the TGI [50] was > 100 µM. For the same compound, the TGI [51] was > 100 µM, the TGI [52] was > 100 µM and the TGI [53] was > 100 µM. The TGI [54] was > 100 µM, the TGI [59] was > 100 µM and the TGI [55] was > 100 µM. The TGI [56] was > 100 µM, the TGI [57] was > 100 µM and the TGI [58] was > 100 µM.
